Values quoted from earlier work in patent US20240066021A1, “METHODS FOR OPTIMIZING CFTR-MODULATOR THERAPY” (Children's Hospital Medical Center, priority 2021, published 2024).
Read-outs that look alike come from different tables or passages of the source.

Columns and labels:
[1] = target: PI3K catclass IB(p110-gamma) (Homo sapiens, UniProt P48736)
Guanylatecyclase A(NPR1) = target: T1, Guanylatecyclase A(NPR1) (Homo sapiens, UniProt P16066); conditions: Target Guanylatecyclase A(NPR1), Gene Symbol NPR1
T1 sequence (P16066 33-1061): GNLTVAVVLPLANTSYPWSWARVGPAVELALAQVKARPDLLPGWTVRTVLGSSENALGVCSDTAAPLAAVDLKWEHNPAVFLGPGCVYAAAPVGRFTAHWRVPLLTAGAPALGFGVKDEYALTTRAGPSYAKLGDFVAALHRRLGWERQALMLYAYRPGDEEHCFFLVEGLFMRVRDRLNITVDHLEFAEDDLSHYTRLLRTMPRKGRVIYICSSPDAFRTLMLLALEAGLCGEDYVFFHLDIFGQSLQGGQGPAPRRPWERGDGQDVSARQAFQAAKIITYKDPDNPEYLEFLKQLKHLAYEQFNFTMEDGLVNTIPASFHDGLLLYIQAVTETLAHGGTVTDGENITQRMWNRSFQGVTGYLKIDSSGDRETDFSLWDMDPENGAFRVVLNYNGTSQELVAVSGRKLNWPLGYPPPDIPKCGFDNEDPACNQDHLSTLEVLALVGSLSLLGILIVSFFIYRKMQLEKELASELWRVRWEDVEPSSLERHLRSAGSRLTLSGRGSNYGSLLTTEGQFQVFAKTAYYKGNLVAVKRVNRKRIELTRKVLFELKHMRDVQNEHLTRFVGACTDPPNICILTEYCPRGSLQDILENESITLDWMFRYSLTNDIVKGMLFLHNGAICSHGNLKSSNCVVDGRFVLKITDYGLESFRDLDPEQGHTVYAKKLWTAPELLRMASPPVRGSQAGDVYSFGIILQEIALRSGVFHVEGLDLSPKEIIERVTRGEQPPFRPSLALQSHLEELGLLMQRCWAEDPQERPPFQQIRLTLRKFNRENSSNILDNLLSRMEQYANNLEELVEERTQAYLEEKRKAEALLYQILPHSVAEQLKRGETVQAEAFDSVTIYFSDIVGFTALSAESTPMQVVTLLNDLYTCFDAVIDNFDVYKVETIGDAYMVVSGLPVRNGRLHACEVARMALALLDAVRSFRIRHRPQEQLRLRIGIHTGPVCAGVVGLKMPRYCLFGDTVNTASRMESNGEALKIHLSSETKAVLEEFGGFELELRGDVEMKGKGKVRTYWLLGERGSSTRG

TXNRD1 = target: T2, TXNRD1 (Homo sapiens, UniProt Q16881)
T2 sequence (Q16881 151-649 limits assumed): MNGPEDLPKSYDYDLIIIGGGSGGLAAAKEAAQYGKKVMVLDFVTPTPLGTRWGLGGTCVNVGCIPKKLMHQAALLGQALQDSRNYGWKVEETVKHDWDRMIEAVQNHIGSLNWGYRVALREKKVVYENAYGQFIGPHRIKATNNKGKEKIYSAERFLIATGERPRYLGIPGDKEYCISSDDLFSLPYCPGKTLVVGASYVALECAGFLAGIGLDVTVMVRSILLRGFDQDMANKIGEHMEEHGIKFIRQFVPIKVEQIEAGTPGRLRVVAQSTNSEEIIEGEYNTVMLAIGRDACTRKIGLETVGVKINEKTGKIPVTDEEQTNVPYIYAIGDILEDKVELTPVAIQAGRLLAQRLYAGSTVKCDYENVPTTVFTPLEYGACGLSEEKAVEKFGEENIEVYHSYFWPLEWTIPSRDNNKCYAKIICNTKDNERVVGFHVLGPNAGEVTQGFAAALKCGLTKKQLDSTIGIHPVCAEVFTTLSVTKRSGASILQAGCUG

NR2A = NR2A (Homo sapiens, UniProt Q12879)
HTR1B = HTR1B (Homo sapiens, UniProt P28222); conditions: Target HTR1B, Gene Symbol HTR1B
IKK-beta = target: T3, IKK-beta (Homo sapiens, UniProt O14920); conditions: Target IKK-beta, Gene Symbol IKBKB
T3 sequence (O14920 1-756): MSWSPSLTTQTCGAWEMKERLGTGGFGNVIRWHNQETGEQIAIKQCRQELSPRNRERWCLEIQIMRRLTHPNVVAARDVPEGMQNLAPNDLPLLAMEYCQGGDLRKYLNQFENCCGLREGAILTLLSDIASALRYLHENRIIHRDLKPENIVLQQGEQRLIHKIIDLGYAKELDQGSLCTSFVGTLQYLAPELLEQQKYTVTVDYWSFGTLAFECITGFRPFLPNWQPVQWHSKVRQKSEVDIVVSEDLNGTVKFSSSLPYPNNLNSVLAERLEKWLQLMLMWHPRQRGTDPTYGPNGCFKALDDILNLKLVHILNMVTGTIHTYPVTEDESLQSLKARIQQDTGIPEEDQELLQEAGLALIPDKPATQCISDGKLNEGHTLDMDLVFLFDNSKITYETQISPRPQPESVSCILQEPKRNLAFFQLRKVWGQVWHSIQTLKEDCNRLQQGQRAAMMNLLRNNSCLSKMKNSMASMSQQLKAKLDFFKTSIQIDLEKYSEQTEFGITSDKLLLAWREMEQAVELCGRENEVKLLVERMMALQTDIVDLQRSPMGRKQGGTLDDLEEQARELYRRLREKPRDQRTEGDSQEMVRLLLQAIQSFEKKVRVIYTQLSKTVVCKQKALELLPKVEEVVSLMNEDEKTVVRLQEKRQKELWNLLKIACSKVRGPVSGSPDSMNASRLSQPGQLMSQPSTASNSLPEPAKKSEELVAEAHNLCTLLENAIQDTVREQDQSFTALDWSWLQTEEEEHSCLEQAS

mTOR = mTOR (Homo sapiens, UniProt P42345); conditions: Target mTOR, Gene Symbol MTOR
NR2A/NR3A = NR2A/NR3A (Homo sapiens, UniProt Q12879)
[2] = test system: patients treated with ivacaftor versus patients untreated with CFTR modulators
[3] = test system: patients with at least one G551D mutation
SCN2A = SCN2A (Homo sapiens, UniProt Q99250)
[4] = Target NR2A, Gene Symbol GRIN2A
[5] = six months after drug initiation

HTR1B, sequence (P28222 whole entry): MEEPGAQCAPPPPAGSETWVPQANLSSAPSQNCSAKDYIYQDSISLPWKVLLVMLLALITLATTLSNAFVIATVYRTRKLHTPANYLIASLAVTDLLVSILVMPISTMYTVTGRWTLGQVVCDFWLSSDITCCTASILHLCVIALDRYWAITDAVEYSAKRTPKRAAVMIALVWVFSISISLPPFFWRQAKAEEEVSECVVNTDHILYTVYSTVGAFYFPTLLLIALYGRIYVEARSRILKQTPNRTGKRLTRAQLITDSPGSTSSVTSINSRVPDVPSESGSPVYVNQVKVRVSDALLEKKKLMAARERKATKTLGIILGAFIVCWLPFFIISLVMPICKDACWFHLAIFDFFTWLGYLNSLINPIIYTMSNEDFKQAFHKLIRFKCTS
NR2A, sequence (Q12879 23-1464, other chains not shown): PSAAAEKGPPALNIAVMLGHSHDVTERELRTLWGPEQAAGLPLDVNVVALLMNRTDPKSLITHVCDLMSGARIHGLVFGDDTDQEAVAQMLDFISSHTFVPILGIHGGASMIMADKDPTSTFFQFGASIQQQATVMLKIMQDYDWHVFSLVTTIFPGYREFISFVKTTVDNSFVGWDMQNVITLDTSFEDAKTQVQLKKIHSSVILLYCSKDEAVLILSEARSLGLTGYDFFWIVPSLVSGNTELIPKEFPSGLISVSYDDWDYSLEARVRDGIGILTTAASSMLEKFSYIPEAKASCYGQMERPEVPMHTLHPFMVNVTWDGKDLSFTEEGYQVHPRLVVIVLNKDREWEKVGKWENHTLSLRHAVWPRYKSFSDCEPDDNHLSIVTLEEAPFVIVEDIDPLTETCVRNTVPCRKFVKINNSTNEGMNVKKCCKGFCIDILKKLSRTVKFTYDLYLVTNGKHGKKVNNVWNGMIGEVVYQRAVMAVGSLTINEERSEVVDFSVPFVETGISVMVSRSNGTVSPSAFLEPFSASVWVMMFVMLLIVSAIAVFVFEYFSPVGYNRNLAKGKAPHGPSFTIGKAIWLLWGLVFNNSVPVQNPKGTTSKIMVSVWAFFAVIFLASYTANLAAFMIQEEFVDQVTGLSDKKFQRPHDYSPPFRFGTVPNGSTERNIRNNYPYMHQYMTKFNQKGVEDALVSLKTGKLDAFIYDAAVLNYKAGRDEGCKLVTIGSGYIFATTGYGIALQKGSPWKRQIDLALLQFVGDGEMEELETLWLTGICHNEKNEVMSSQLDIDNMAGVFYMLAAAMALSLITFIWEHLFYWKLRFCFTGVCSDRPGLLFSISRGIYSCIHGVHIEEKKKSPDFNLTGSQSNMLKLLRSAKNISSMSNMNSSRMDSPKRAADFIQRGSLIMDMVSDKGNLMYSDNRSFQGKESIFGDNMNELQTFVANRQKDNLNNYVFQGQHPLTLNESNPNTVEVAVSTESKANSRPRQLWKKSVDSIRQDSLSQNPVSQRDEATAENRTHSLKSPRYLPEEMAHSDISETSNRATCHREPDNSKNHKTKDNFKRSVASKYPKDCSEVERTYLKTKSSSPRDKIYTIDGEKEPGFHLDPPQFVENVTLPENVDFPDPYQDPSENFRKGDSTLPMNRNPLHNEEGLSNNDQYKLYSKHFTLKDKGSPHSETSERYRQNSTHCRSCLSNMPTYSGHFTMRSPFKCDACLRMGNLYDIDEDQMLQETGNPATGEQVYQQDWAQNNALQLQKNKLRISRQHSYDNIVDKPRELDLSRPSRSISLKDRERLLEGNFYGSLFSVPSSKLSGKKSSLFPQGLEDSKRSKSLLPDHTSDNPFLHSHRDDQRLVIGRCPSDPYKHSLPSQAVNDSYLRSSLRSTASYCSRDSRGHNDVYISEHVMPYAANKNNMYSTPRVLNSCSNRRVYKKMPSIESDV
NR2A/NR3A, sequence (Q12879 23-1464, other chains not shown): as above
PI3K catclass IB(p110-gamma), sequence (P48736 whole entry): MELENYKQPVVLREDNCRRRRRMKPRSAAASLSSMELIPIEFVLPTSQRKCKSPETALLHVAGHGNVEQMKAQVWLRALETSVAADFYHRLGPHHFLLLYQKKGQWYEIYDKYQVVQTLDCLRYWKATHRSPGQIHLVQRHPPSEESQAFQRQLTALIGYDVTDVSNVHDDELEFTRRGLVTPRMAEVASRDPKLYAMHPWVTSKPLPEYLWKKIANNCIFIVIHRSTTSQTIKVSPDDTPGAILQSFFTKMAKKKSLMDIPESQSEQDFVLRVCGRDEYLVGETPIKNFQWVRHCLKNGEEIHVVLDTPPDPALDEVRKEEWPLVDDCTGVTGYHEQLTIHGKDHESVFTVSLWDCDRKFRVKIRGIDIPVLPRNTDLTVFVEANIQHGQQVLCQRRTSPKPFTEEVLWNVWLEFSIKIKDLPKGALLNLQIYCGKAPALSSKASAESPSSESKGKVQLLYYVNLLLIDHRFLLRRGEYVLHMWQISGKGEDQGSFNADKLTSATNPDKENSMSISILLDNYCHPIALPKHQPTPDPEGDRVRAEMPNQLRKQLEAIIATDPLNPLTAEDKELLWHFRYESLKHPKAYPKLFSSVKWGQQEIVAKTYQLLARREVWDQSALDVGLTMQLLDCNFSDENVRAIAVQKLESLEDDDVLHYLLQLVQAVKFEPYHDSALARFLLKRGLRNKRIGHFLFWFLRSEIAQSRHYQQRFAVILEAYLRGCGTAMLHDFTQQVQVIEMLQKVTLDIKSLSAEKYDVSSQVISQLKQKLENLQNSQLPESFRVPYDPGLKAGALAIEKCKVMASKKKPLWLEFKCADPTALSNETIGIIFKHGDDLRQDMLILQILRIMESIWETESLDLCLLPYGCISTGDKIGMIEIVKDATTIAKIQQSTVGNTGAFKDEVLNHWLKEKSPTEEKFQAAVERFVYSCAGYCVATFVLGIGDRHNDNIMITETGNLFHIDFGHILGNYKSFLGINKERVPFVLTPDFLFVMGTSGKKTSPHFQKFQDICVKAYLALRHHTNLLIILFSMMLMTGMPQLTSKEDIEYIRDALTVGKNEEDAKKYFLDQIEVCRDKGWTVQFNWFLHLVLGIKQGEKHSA

Compound: Nc1nc(N)c2nc(-c3cccc(O)c3)c(-c3cccc(O)c3)nc2n1 [TG100115]
- Effect ([1]; Target PI3K catclass IB(p110-gamma), Gene Symbol PIK3CG): Inhibition

Compound: O=[N+]([O-])O[C@H]1CO[C@H]2[C@@H]1OC[C@H]2O[N+](=O)[O-] [Isosorbide dinitrate]
- Effect (Guanylatecyclase A(NPR1)): Inhibition

Compound: CC(=O)[O-].CC(=O)[O-].CCc1c(CC)c2cc3nc(cnc4cc(OCCOCCOCCOC)c(OCCOCCOCCOC)cc4ncc4nc(cc1[n-]2)C(CCCO)=C4C)C(C)=C3CCCO.O.[Gd+3] [Motexafin gadolinium]
- Effect (TXNRD1; Target TXNRD1, Gene Symbol TXNRD1): Inhibition

Compound: CC(Cc1ccccc1)(NC(=O)CN)c1ccccc1 (stereo not shown) [Remacemide]
- Effect (NR2A; [4]): Inhibition

Compound: CN(C)CCc1c[nH]c2ccc(CS(=O)(=O)N3CCCC3)cc12 [Almotriptan]
- Effect (HTR1B): Activation

Compound: C[C@@H]1CN(C(=O)CN2CC(C)(C)OC[C@H]2C(=O)Nc2cc(Cl)cc3c2[nH]c2cnccc23)C[C@H](C)O1 [MLN0415]
- Effect (IKK-beta): Inhibition

Compound: CO[C@H]1C[C@@H]2CC[C@@H](C)[C@@](O)(O2)C(=O)C(=O)N2CCCC[C@H]2C(=O)O[C@H]([C@H](C)C[C@@H]2CC[C@@H](OC(=O)C(C)(CO)CO)[C@H](OC)C2)CC(=O)[C@H](C)/C=C(\C)[C@@H](O)[C@@H](OC)C(=O)[C@H](C)C[C@H](C)/C=C/C=C/C=C/1C [Temsirolimus intracellular, Temsirolimus]
- Effect (mTOR): Inhibition

Compound: C=CCN(/C=C1/C(=O)O[C@H](COC)[C@@]2(C)C1=C(O)C(=O)C1=C2[C@H](OC(C)=O)C[C@]2(C)C(=O)CC[C@@H]12)CC=C [Sonolisib]
- Effect [1]: Inhibition

Compound: NC(=O)CNC1Cc2ccccc2C1 [Indantadol]
- Effect (NR2A; [4]): Inhibition

Compound: Nesiritide
- Effect (Guanylatecyclase A(NPR1)): Activation

Compound: CNC1(c2ccccc2Cl)CCCCC1=O (stereo not shown) [Ketamine]
- Effect (NR2A/NR3A): Inhibition
- Effect (NR2A): Inhibition

Compound: CO[C@H]1C[C@@H]2CC[C@@H](C)[C@@](O)(O2)C(=O)C(=O)N2CCCC[C@H]2C(=O)O[C@H]([C@H](C)C[C@@H]2CC[C@@H](OP(C)(C)=O)[C@H](OC)C2)CC(=O)[C@H](C)/C=C(\C)[C@@H](O)[C@@H](OC)C(=O)[C@H](C)C[C@H](C)/C=C/C=C/C=C/1C [Ridaforolimus]
- Effect (mTOR): Inhibition

Compound: COc1ccc(-c2ccc3c(N4CCOC[C@@H]4C)nc(N4CCOC[C@@H]4C)nc3n2)cc1CO [AZD8055]
- Effect (mTOR): Inhibition

Compound: CN(C)CCc1c[nH]c2ccc(Cn3cncn3)cc12 [Rizatriptan]
- Effect (HTR1B): Activation

Compound: CC(C)(C)c1cc(C(C)(C)C)c(NC(=O)c2c[nH]c3ccccc3c2=O)cc1O [ivacaftor]
- BMI ([2]; longer term follow up): maintain improved
- hospitalizations ([2]; longer term follow up): decreasing
- pulmonary exacerbations ([2]; longer term follow up): decreasing
- lung function decline ([2]; versus patients untreated with CFTR modulators): slowed
- mean change in ppFEV1 [3, 5]: 6.7 (95% CI 4.9-8.5)
- mean change in weight [3, 5]: 2.5 kg
- mean decline in sweat chloride [3, 5]: −54 mEq
- quality of life scores [3, 5]: improvement
- rate of hospitalization ([3]; six months after drug initiation, p<0.001): decreased
- portion of subjects with physiologic CFTR correction that did not have improvement in FEV1>5% (poor lung function response) ([3]; subjects with sweat chloride shifts by −40 to −80 mEq/L): ~50%

Compound: CNS(=O)(=O)CCc1ccc2[nH]cc(C3CCN(C)CC3)c2c1 [Naratriptan]
- Effect (HTR1B): Activation

Compound: NC1=N[C@H](O)[C@H]2[C@H]3O[C@]4(O)O[C@@H]([C@@H](O)[C@@]2(N1)[C@@H]4O)[C@]3(O)CO [Tetrodotoxin]
- Effect (SCN2A): Inhibition

Compound: CN[C@@H]1CCc2[nH]c3ccc(C(N)=O)cc3c2C1 [Frovatriptan]
- Effect (HTR1B): Activation

Compound: CN1CCN(c2ncc(-c3cc(Cl)cc(Cl)c3Cl)c(N)n2)CC1 [Sipatrigine]
- Effect (SCN2A): Inhibition

Compound: CC12CC3CC(C)(C1)CC(N)(C3)C2 [Memantine]
- Effect (NR2A/NR3A; Target NR2A/NR3A, Gene Symbol GRIN2A): Inhibition
- Effect (NR2A; [4]): Inhibition

Compound: Cn1c(COP(=O)(NCCBr)NCCBr)cnc1[N+](=O)[O-] [Evofosfamide]
- Effect (TXNRD1): Inhibition

Compound: CO[C@H]1C[C@@H]2CC[C@@H](C)[C@@](O)(O2)C(=O)C(=O)N2CCCC[C@H]2C(=O)O[C@H]([C@H](C)C[C@@H]2CC[C@@H](OCCO)[C@H](OC)C2)CC(=O)[C@H](C)/C=C(\C)[C@@H](O)[C@@H](OC)C(=O)[C@H](C)C[C@H](C)/C=C/C=C/C=C/1C [Everolimus]
- Effect (mTOR): Inhibition

Compound: COc1cc(O)c(CC=C(C)C)c(O)c1C(=O)/C=C/c1ccc(O)cc1 [Xanthohumol]
- Effect (IKK-beta): Inhibition
